Data taken from the NIST ThermoML archive (doi:10.1021/je1005517).
± gives the expanded uncertainty stated by the source.

Test: activity coefficient (dimensionless); of the first substance listed, at infinite dilution; xn = mol fraction of the nth substance listed
Conditions: Liquid, GC, x1 = 0

| Structure (SMILES) | activity coefficient (338.15 K, 101 kPa) | activity coefficient (343.15 K, 101 kPa) | activity coefficient (348.15 K, 101 kPa) | activity coefficient (353.15 K, 101 kPa) | activity coefficient (333.15 K, 101 kPa) | activity coefficient (333.15 K, 101.3 kPa) | activity coefficient (338.15 K, 101.3 kPa) | activity coefficient (343.15 K, 101.3 kPa) | activity coefficient (348.15 K, 101.3 kPa) | activity coefficient (353.15 K, 101.3 kPa) |
| --- | --- | --- | --- | --- | --- | --- | --- | --- | --- | --- |
| CCCCCl [1-chlorobutane] + CCCCCCCCCCCCCCCCCCCCO | 0.0991 ± 0.0059 | 0.0954 ± 0.0057 | 0.0919 ± 0.0055 | 0.0886 ± 0.0053 | – | – | – | – | – | – |
| CCCCCl [1-chlorobutane] + CCCCCCCCCCCCCCCCCCO | 0.036 ± 0.0022 | 0.0338 ± 0.002 | 0.0321 ± 0.0019 | 0.03 ± 0.0018 | 0.0389 ± 0.0023 | – | – | – | – | – |
| CCCCl [1-chloropropane] + CCCCCCCCCCCCCCCCCCCCO | 0.0779 ± 0.0047 | 0.0778 ± 0.0047 | 0.0778 ± 0.0047 | 0.0777 ± 0.0047 | – | – | – | – | – | – |
| CCCCl [1-chloropropane] + CCCCCCCCCCCCCCCCCCO | – | – | – | – | – | 0.0331 ± 0.002 | 0.0294 ± 0.0018 | 0.0269 ± 0.0016 | 0.0245 ± 0.0015 | 0.0225 ± 0.0014 |
| C=CCCCCC [1-heptene] + CCCCCCCCCCCCCCCCCCCCO | 0.124 ± 0.0074 | 0.118 ± 0.0071 | 0.113 ± 0.0068 | 0.108 ± 0.0065 | – | – | – | – | – | – |
| C=CCCCCC [1-heptene] + CCCCCCCCCCCCCCCCCCO | – | – | – | – | – | 0.0431 ± 0.0026 | 0.0417 ± 0.0025 | 0.0407 ± 0.0024 | 0.0397 ± 0.0024 | 0.0388 ± 0.0023 |
| C=CCCC [1-pentene] + CCCCCCCCCCCCCCCCCCCCO | 0.0813 ± 0.0049 | 0.0742 ± 0.0045 | 0.0664 ± 0.004 | 0.06 ± 0.0036 | – | – | – | – | – | – |
| C=CCCC [1-pentene] + CCCCCCCCCCCCCCCCCCO | – | – | – | – | – | 0.0261 ± 0.0016 | 0.0245 ± 0.0015 | 0.0234 ± 0.0014 | 0.0222 ± 0.0013 | 0.0213 ± 0.0013 |
| CC(C)=O [acetone] + CCCCCCCCCCCCCCCCCCCCO | 0.0557 ± 0.0033 | 0.0572 ± 0.0034 | 0.0587 ± 0.0035 | 0.0602 ± 0.0036 | – | – | – | – | – | – |
| CC(C)=O [acetone] + CCCCCCCCCCCCCCCCCCO | 0.0179 ± 0.0011 | 0.0174 ± 0.001 | 0.017 ± 0.001 | 0.0166 ± 0.001 | 0.0185 ± 0.0011 | – | – | – | – | – |
| CC#N [acetonitrile] + CCCCCCCCCCCCCCCCCCCCO | 0.309 ± 0.019 | 0.265 ± 0.016 | 0.229 ± 0.014 | 0.197 ± 0.012 | – | – | – | – | – | – |
| CC#N [acetonitrile] + CCCCCCCCCCCCCCCCCCO | 0.0969 ± 0.0058 | 0.0901 ± 0.0054 | 0.0832 ± 0.005 | 0.0766 ± 0.0046 | 0.108 ± 0.0065 | – | – | – | – | – |
| CCCCO [butan-1-ol] + CCCCCCCCCCCCCCCCCCCCO | 0.431 ± 0.026 | 0.387 ± 0.023 | 0.352 ± 0.021 | 0.316 ± 0.019 | – | – | – | – | – | – |
| CCCCO [butan-1-ol] + CCCCCCCCCCCCCCCCCCO | – | – | – | – | – | 0.154 ± 0.0092 | 0.136 ± 0.008 | 0.121 ± 0.0073 | 0.11 ± 0.0066 | 0.0992 ± 0.006 |
| CCCCOC(C)=O [butyl ethanoate] + CCCCCCCCCCCCCCCCCCCCO | 0.14 ± 0.0084 | 0.131 ± 0.0079 | 0.123 ± 0.0074 | 0.115 ± 0.0069 | – | – | – | – | – | – |
| CCCCOC(C)=O [butyl ethanoate] + CCCCCCCCCCCCCCCCCCO | – | – | – | – | – | 0.0526 ± 0.0032 | 0.0468 ± 0.0028 | 0.0428 ± 0.0026 | 0.0391 ± 0.0023 | 0.0358 ± 0.0021 |
| C1CCCCC1 [cyclohexane] + CCCCCCCCCCCCCCCCCCCCO | 0.108 ± 0.0065 | 0.102 ± 0.0061 | 0.0969 ± 0.0058 | 0.0918 ± 0.0055 | – | – | – | – | – | – |
| C1CCCCC1 [cyclohexane] + CCCCCCCCCCCCCCCCCCO | 0.0337 ± 0.002 | 0.0315 ± 0.0019 | 0.0294 ± 0.0018 | 0.0274 ± 0.0016 | 0.0365 ± 0.0022 | – | – | – | – | – |
| ClCCl [dichloromethane] + CCCCCCCCCCCCCCCCCCCCO | 0.079 ± 0.0047 | 0.0642 ± 0.0039 | 0.0532 ± 0.0032 | 0.0435 ± 0.0026 | – | – | – | – | – | – |
| ClCCl [dichloromethane] + CCCCCCCCCCCCCCCCCCO | – | – | – | – | – | 0.0262 ± 0.0016 | 0.0233 ± 0.0014 | 0.0212 ± 0.0013 | 0.0194 ± 0.0012 | 0.0178 ± 0.0011 |
| CCOCC [diethyl ether] + CCCCCCCCCCCCCCCCCCCCO | 0.0652 ± 0.0039 | 0.0624 ± 0.0037 | 0.0598 ± 0.0036 | 0.0572 ± 0.0034 | – | – | – | – | – | – |
| CCOCC [diethyl ether] + CCCCCCCCCCCCCCCCCCO | 0.0235 ± 0.0014 | 0.0219 ± 0.0013 | 0.0204 ± 0.0012 | 0.019 ± 0.001 | 0.0257 ± 0.0015 | – | – | – | – | – |

| Structure (SMILES) | activity coefficient (338.15 K, 101 kPa) | activity coefficient (343.15 K, 101 kPa) | activity coefficient (348.15 K, 101 kPa) | activity coefficient (353.15 K, 101 kPa) | activity coefficient (333.15 K, 101 kPa) | activity coefficient (333.15 K, 101.3 kPa) | activity coefficient (338.15 K, 101.3 kPa) | activity coefficient (343.15 K, 101.3 kPa) | activity coefficient (348.15 K, 101.3 kPa) | activity coefficient (353.15 K, 101.3 kPa) |
| --- | --- | --- | --- | --- | --- | --- | --- | --- | --- | --- |
| CCO [ethanol] + CCCCCCCCCCCCCCCCCCCCO | 0.124 ± 0.0075 | 0.117 ± 0.007 | 0.106 ± 0.0063 | 0.095 ± 0.0057 | – | – | – | – | – | – |
| CCO [ethanol] + CCCCCCCCCCCCCCCCCCO | – | – | – | – | – | 0.0433 ± 0.0026 | 0.0396 ± 0.0024 | 0.0369 ± 0.0022 | 0.0343 ± 0.0021 | 0.032 ± 0.002 |
| CCOC(C)=O [ethyl acetate] + CCCCCCCCCCCCCCCCCCCCO | 0.123 ± 0.0074 | 0.11 ± 0.0066 | 0.099 ± 0.0059 | 0.0888 ± 0.0053 | – | – | – | – | – | – |
| CCOC(C)=O [ethyl acetate] + CCCCCCCCCCCCCCCCCCO | – | – | – | – | – | 0.0445 ± 0.0027 | 0.0408 ± 0.0024 | 0.0384 ± 0.0023 | 0.036 ± 0.0022 | 0.0335 ± 0.002 |
| CCCCCC [hexane] + CCCCCCCCCCCCCCCCCCCCO | 0.129 ± 0.0077 | 0.124 ± 0.0074 | 0.119 ± 0.0072 | 0.115 ± 0.0069 | – | – | – | – | – | – |
| CCCCCC [hexane] + CCCCCCCCCCCCCCCCCCO | 0.0468 ± 0.0028 | 0.0411 ± 0.0025 | 0.0359 ± 0.0022 | 0.0315 ± 0.0019 | 0.0551 ± 0.0033 | – | – | – | – | – |
| CO [methanol] + CCCCCCCCCCCCCCCCCCCCO | 0.122 ± 0.0073 | 0.0967 ± 0.0058 | 0.0737 ± 0.0044 | 0.0574 ± 0.0034 | – | – | – | – | – | – |
| CO [methanol] + CCCCCCCCCCCCCCCCCCO | 0.0386 ± 0.0023 | 0.0357 ± 0.0021 | 0.033 ± 0.002 | 0.0306 ± 0.0018 | 0.0423 ± 0.0025 | – | – | – | – | – |
| CCCCCCCC [octane] + CCCCCCCCCCCCCCCCCCCCO | 0.187 ± 0.011 | 0.161 ± 0.0096 | 0.138 ± 0.0083 | 0.12 ± 0.0072 | – | – | – | – | – | – |
| CCCCCCCC [octane] + CCCCCCCCCCCCCCCCCCO | 0.0497 ± 0.003 | 0.0485 ± 0.0029 | 0.0473 ± 0.0028 | 0.0461 ± 0.0028 | 0.0513 ± 0.0031 | – | – | – | – | – |
| CCCCC [pentane] + CCCCCCCCCCCCCCCCCCCCO | 0.0954 ± 0.0057 | 0.0801 ± 0.0048 | 0.0668 ± 0.004 | 0.0564 ± 0.0034 | – | – | – | – | – | – |
| CCCCC [pentane] + CCCCCCCCCCCCCCCCCCO | 0.0272 ± 0.0016 | 0.0259 ± 0.0016 | 0.0243 ± 0.0015 | 0.0231 ± 0.0014 | 0.0292 ± 0.0018 | – | – | – | – | – |
| CCCO [propan-1-ol] + CCCCCCCCCCCCCCCCCCCCO | 0.213 ± 0.013 | 0.193 ± 0.012 | 0.175 ± 0.011 | 0.159 ± 0.0095 | – | – | – | – | – | – |
| CCCO [propan-1-ol] + CCCCCCCCCCCCCCCCCCO | – | – | – | – | – | 0.0722 ± 0.0043 | 0.0625 ± 0.0038 | 0.0597 ± 0.0036 | 0.055 ± 0.003 | 0.051 ± 0.003 |
| ClC(Cl)(Cl)Cl [tetrachloromethane] + CCCCCCCCCCCCCCCCCCCCO | 0.0862 ± 0.0052 | 0.081 ± 0.0049 | 0.076 ± 0.0046 | 0.0714 ± 0.0043 | – | – | – | – | – | – |
| ClC(Cl)(Cl)Cl [tetrachloromethane] + CCCCCCCCCCCCCCCCCCO | 0.0285 ± 0.0017 | 0.0283 ± 0.0017 | 0.028 ± 0.0017 | 0.0278 ± 0.0017 | 0.0288 ± 0.0017 | – | – | – | – | – |
| C1CCOC1 [tetrahydrofuran] + CCCCCCCCCCCCCCCCCCCCO | 0.0581 ± 0.0035 | 0.0543 ± 0.0033 | 0.0506 ± 0.003 | 0.0471 ± 0.0028 | – | – | – | – | – | – |
| C1CCOC1 [tetrahydrofuran] + CCCCCCCCCCCCCCCCCCO | 0.0188 ± 0.0011 | 0.0177 ± 0.0011 | 0.0166 ± 0.001 | 0.0156 ± 0.0009 | 0.0204 ± 0.0012 | – | – | – | – | – |
| Cc1ccccc1 [toluene] + CCCCCCCCCCCCCCCCCCCCO | 0.544 ± 0.033 | 0.479 ± 0.029 | 0.421 ± 0.025 | 0.373 ± 0.022 | – | – | – | – | – | – |
| Cc1ccccc1 [toluene] + CCCCCCCCCCCCCCCCCCO | 0.0355 ± 0.0021 | 0.0343 ± 0.0021 | 0.0331 ± 0.002 | 0.0318 ± 0.0019 | 0.0372 ± 0.0022 | – | – | – | – | – |
| ClC(Cl)Cl [trichloromethane] + CCCCCCCCCCCCCCCCCCCCO | 0.0632 ± 0.0038 | 0.0622 ± 0.0037 | 0.0612 ± 0.0037 | 0.0604 ± 0.0036 | – | – | – | – | – | – |
| ClC(Cl)Cl [trichloromethane] + CCCCCCCCCCCCCCCCCCO | 0.022 ± 0.0013 | 0.0214 ± 0.0013 | 0.0208 ± 0.0012 | 0.0202 ± 0.0012 | 0.0227 ± 0.0014 | – | – | – | – | – |
